These results are taken from patent US8252835B2, “Compounds and methods for treating estrogen receptor-related diseases” (Shenogen Pharma Group Ltd., priority 2006, dated 2012).

Structures are written as SMILES.

One assay concerns MDA-MB-231 cells. Description: MDA-MB-231 colony formation, crystal violet staining. In kind it is cell-based. To be noted: 10 days, FIG. 4.
For assay [1], the system named is MCF7 cells. The experiment in a line: MCF7 colony formation. In kind it is cell-based. The note with it: 10 days, FIG. 5a.
The next assay concerns cell proliferation. To be noted: background, literature; cited from earlier work.
A further assay has as its system breast cancer cells. To be noted: background, literature (Liu 2005; Wang 2004; Ye 2005); cited from earlier work.
In assay [2] the test system is MCF7 cells. The experiment in a line: MCF7 surviving cell count (hemocytometer). The note with it: for numbers of surviving MCF7 cells: 5 μM and up, two weeks, FIG. 5b.
The target of a further assay is T1, ER-α66 (Homo sapiens, UniProt P03372).
T1 sequence (P03372 1-595): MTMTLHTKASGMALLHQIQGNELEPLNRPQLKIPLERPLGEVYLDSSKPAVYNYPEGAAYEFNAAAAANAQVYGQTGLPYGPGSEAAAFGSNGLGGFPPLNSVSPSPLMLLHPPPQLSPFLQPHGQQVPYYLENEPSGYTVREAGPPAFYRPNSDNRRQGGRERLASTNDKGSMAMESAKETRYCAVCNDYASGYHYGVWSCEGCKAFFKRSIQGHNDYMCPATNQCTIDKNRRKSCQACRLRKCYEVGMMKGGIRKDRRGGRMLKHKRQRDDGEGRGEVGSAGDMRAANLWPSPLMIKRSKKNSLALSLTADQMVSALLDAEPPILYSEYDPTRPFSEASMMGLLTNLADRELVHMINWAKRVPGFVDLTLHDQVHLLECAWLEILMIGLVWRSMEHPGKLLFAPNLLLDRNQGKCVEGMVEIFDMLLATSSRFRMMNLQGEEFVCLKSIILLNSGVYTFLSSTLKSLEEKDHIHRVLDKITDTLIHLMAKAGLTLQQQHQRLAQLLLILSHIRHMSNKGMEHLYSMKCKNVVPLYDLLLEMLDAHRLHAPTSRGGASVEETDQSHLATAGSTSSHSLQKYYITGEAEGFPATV
Description: Western blot of ER-α66 expression in MCF7 cells. The note with it: zero to 25 μM, 12 hours, FIG. 9.

The next assay addresses T2, ER-α46 (Homo sapiens, UniProt P03372).
T2 sequence (P03372 1-422 isoform P03372-3): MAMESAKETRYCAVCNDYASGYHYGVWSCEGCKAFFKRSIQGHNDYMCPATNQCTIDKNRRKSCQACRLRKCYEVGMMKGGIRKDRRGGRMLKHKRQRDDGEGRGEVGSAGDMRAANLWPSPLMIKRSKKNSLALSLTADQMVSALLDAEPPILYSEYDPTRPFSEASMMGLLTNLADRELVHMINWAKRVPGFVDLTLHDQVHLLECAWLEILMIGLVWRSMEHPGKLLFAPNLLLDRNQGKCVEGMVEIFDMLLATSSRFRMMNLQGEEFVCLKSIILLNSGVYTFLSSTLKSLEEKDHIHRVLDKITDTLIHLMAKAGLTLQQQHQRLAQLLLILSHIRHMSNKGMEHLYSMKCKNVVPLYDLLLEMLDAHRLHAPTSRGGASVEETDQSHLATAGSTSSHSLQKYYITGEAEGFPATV
Description: Western blot of ER-α46 expression in MCF7 cells. The note with it: zero to 25 μM, 12 hours, FIG. 9.

For a further assay, the target named is T3, ER-α36 (Homo sapiens, UniProt P03372).
T3 sequence (P03372 1-310 isoform P03372-4): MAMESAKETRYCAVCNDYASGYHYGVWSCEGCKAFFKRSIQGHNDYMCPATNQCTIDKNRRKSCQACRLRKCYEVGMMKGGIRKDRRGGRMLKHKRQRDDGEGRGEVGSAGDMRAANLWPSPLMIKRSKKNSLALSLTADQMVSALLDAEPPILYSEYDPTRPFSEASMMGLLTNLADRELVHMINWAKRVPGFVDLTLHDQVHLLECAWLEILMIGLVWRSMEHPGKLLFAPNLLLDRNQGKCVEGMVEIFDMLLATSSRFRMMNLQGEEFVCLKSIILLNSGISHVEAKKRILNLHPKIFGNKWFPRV
Description: Western blot of ER-α36 expression in MCF7 cells. To be noted: zero to 25 μM, 12 hours, FIG. 9.

The next assay relates to H226 Lung Cancer Cells. The experiment in a line: H226 lung cancer surviving cell count. In kind it is cell-based. To be noted: 10 μM, FIG. 16.
In the next assay the test system is PC3 cells. Description: PC3 prostate cancer surviving cell count. The note with it: 10 μM, FIG. 16. In kind it is cell-based.
Assay [3] in a line: Asthma attack induced by ovalbumin in guinea pigs. Format: in vivo. To be noted: for blood concentration of histamine / concentration of IgE in the blood: ELISA; for blood concentration of histamine: FIG. 19; for concentration of IgE in the blood: FIG. 20; for percentage of oxyphil cells in the blood: control about 9.9%, normal about 5.3%. As to the method:
Guinea pigs of 250-300 g were provided by Beijing Haidian Xingwang Animal Farm. The guinea pigs were injected with 1 ml 10% ovalbumin (Sigma Cat. No. A5253) into abdomen once. On the 15th-17th day after the injection, the guinea pigs were given 1% aerosolized ovalbumin for about 20 seconds through nasal spray to induce asthma attack. The latent period before asthma attack calculated from after ovalbumin administration to the time when the guinea pigs collapsed with convulsion was measured.
On the 17th day after injection, the qualified guinea pigs were divided into 3 groups, the high dosage IC-163 group (4 mg/kg/day), the low dosage IC-163 group (1 mg/kg/day) and the control group. Each group consisted of 10 guinea pigs. A normal group consisting of 8 normal guinea pigs which had not been injected with any 10% ovalbumin was also tested. IC-163 was administered to the guinea pigs at 4 mg per kilogram of body weight per day (the high dosage group) or 1 mg per kilogram of body weight per day (the low dosage group) through muscle injection once a day for 6 days while the guinea pigs of the normal group and the control group were injected with saline water. On the 4th and 6th day of administering the drug, the guinea pigs were induced for asthma attack in the same way as above. The latent period before asthma attack was measured. If the latent period lasted longer than 5 minutes, the latent period was recorded as 5 minutes. On the 6th day, blood was drawn from the guinea pigs of the four groups to examine the percentage of oxyphil cells, the concentrations of histamine and IgE in the blood. The percentage of oxyphil cells was measured by counting the number of oxyphil cells in every 200 leukocytes under microscope. The concentrations of histamine and IgE were measured by double-antibody sandwich ELISA (Enzyme Linked Immunosorbent Assay).

The subject of assay [4] is Tamoxifen resistant MCF7 cells (MCF7/TAM). Description: Surviving cell count, Tamoxifen resistant MCF7 cells. The note with it: 10 μM, FIG. 16.
Assay [5] deals with human endometrial cancer Hec1A cells. Description: MTT assay of Hec1A cell growth. Format: cell-based. To be noted: 24 hours. As to the method:
Human endometrial cancer Hec1A cells (ATCC No.: HTB-112™) were subseeded in a 96-well culture plate at a concentration of 5×10^3 cells/well and were cultured in DMEM containing high glucose medium (HyClone, SH30022.01B). […] The cells then were incubated with 0.5 mg/ml 3-(4,5-dimethylthiazol-2-yl)-2,5-diphenyltetrazolium bromide (MTT) for 4 hours at 37° C. wherein the MTT was reduced to insoluble purple formazan by the active mitochondrial reductase enzymes in the living cells. Then the excessive liquid MTT was removed from the reaction mixture. 150 μl of DMSO was added to dissolve the purple formazan into a colored solution. The optical density of the colored solution was measured at 490 nm using a microplate reader.

Setting [6] is: zero to 25 μM, as concentration rose.
Where [7] appears, read: high dosage 4 mg/kg/day, 6th day.
Setting [8] is: low dosage 1 mg/kg/day, 6th day.

As to `C[C@]12CC[C@@H]3c4ccc(O)cc4C[C@@H](CCCCCCCCC[S+]([O-])CCCC(F)(F)C(F)(F)F)[C@H]3[C@@H]1CC[C@@H]2O` (some centres unmarked) [ICI 182,780], the “numbers of colonies of MDA-MB-231 cells” value with MDA-MB-231 cells (5 μM) was “decreased”; in the assay on MDA-MB-231 cells (50 μM), “remained at a high level”. For the same compound, the “number of colonies of MCF7 cells” value in the assay with MCF7 cells [1] (25 μM) is “only a limited decrease”.

With `COc1ccc(-c2oc3c(CC=C(C)C)c(O[C@@H]4O[C@H](CO)[C@@H](O)[C@H](O)[C@H]4O)cc(O)c3c(=O)c2O[C@@H]2O[C@@H](C)[C@H](O)[C@@H](O)[C@H]2O)cc1` [Icariin], the “effect on cell proliferation in vitro” value in the assay with cell proliferation was “no effect”.

For `CC(C)=CCc1c(O)cc(O)c2c(=O)c(O)c(-c3ccc(O)cc3)oc12` [desmethylicaritin, reference compound], in the assay on breast cancer cells, the “proliferation of breast cancer cells” value is “significantly increase”.

Turning to `CC1(C)CCc2c(cc(O)c3c(=O)c(O)c(-c4ccc(O)cc4)oc23)O1` [Y4, 3,5-dihydroxy-2-(4-hydroxyphenyl)-8,8-dimethyl-9,10-dihydro-4H,8H-pyrano[2,3-f]chromen-4-one], the “numbers of surviving MCF7 cells” value in the assay on MCF7 cells [2] is reported as “significantly reduced”. Moreover, the ER-α66 expression entry at ER-α66 was “greatly reduced”. Further, at ER-α46, the ER-α46 expression entry was “greatly reduced”. For the same compound, the ER-α36 expression result at ER-α36 is given as “greatly reduced”.

With `O=c1cc(-c2ccc(O)c(O)c2)oc2cc(O)cc(O)c12` [Luteolin], the “numbers of colonies of MDA-MB-231 cells” value in the assay on MDA-MB-231 cells (5 μM) is on record as “decreased”; in the assay on MDA-MB-231 cells (40 μM), “dropped to near zero”. Also, in the assay with MCF7 cells [1] (setting [6]), the “number of colonies of MCF7 cells” value was “significantly reduced”.

On to `COc1ccc(-c2oc3c(CCC(C)(C)O)c(O)cc(O)c3c(=O)c2O)cc1` [IC 163, 3,5,7-trihydroxy-8-(3-hydroxy-3-methylbutyl)-2-(4-methoxyphenyl)-4H-chromen-4-one], for which the numbers of cells result in the assay on H226 Lung Cancer Cells is given as “reduced”; in the assay with PC3 cells, “reduced”; in the assay with MCF7 cells [2] (10 μM, FIG. 16) it was “reduced”; in assay [4], “reduced”. The “latent period before asthma attack extended in comparison with the control group” value in assay [3] (high dosage 4 mg/kg/day muscle injection, 4th day) turned out to be 72.9%; in assay [3] (high dosage 4 mg/kg/day muscle injection, 6th day) it was 63.5%; in assay [3] (low dosage 1 mg/kg/day muscle injection, 4th day), 83.4%; in [3] (low dosage 1 mg/kg/day muscle injection, 6th day) it was 72.7%. Also, the “blood concentration of histamine” value in [3] (setting [7]) and in [3] (setting [8]) was “significantly reduce” in each case. The “concentration of IgE in the blood” value in [3] (setting [7]) and in assay [3] (setting [8]) was “significantly reduce” throughout. The results for the “percentage of oxyphil cells in the blood” value in assay [3] (setting [7]) and in assay [3] (setting [8]) were “about 8.6%” and “about 7.8%”, respectively. Besides, the “numbers of surviving MCF7 cells” value with MCF7 cells [2] was “significantly reduced”. Also, on ER-α66, the ER-α66 expression entry is recorded as “greatly reduced”. Besides, the ER-α46 expression entry on ER-α46 was “greatly reduced”. Further, the ER-α36 expression result on ER-α36 was “greatly reduced”.

In the case of `CC/C(=C(\c1ccccc1)c1ccc(OCCN(C)C)cc1)c1ccccc1` [Tamoxifen], the results for the “numbers of colonies of MDA-MB-231 cells” value in the assay on MDA-MB-231 cells (5 μM) and with MDA-MB-231 cells (10 μM) were “decreased” and “reduced to near zero”, respectively. Further, the “number of colonies of MCF7 cells” value with MCF7 cells [1] (setting [6]) was “significantly reduced”. Further, the “effect on the growth of Hec1A cells” value in assay [5] (concentrations below 3 μM) was “stimulating the growth”. Also, the “optical density at 490 nm (MTT)” value in assay [5] (concentrations increased from 0.001 μM to 3 μM, FIG. 21) is reported as “rose”.
